Test results reported in article PMC12331786, “Component characterization of Smilax glabra Roxb., and its inhibitory activity against Helicobacter pylori through targeted suppression of its secreted urease” (Frontiers in Cellular and Infection Microbiology, 2025).
In brackets after ≈: the same amount, converted by molar mass. Like-named read-outs stand apart in the source and are kept apart here.

Tests used:
[1] = target: T1, jack bean urease (JBU) (Canavalia ensiformis, UniProt P07374); assay: biochemical; assay type: biochemical
T1 construct: purchased Sigma Aldrich
Excerpt: Campylobacter agar medium was purchased from Thermo Fisher Scientific. Acetylhydroxamic acid (AHA), jack bean urease (JBU, type III with specific activity 40.3 U/mg solid) and urea were obtained from Sigma Aldrich. Boric acid (BA) and sodium fluoride (NaF) were purchased from Maclin (Shanghai, China). Dithiothreitol (DTT) and L-cysteine (L-cys) were obtained from Solaibao (Beijing, China). Glutathione (GSH) was obtained from Meilun (Dalian, China). HEPES (Amresco >99%) was from BioFroxx. All chemicals and reagents were of analytic purity.
(§1) The protein concentration of HPU was tested utilizing BCA protein detection kit. Standard urease test mixture consists of 150 mM urea in HEPES buffer (20 mM). HPU solution of varying concentrations was mixed with 150 mM urea as the substrate in a HEPES buffer (20 mM), and then reacted at 37 °C for 20 min. Urease vitality was assessed based on ammonia levels generated during the reaction. Ultimately, residual urease activity was measured by modified Berthelot (phenol hypochlorite) at 595 nm. This experiment was performed three times in parallel.
(§2) Test drug solution with equal volume and different concentration was mixed with urease and incubated in a 96-well plate at 37°C for 20 min. AHA was used as the positive control, while urease with urea (no depressor) served as the negative control. Moreover, urea solution (150 mM) was admixed and coincubated at ambient temperature for 20 min. Residual urease activity was measured via using the modified Berthelot method. The percentage of residual activity (RA%) was calculated as (A^sample - A^blank)/(A^negative control - A^blank)×100%, where A^blank represents the background absorbance without urease. Calculating the half-maximal inhibitory concentration (IC50) of the depressor to assess the impact of the test drug towards enzyme activity. Each experiment was conducted in triplicate for validation.

[2] = target: T2, H. pylori urease (HPU) (Helicobacter pylori, UniProt P69996); assay: biochemical; assay type: biochemical, H. pylori strain ATCC 43504
T2 construct: The resulting HPU preparation represents a crude enzyme extract; endogenous in cells; host or cells: H. pylori strain ATCC 43504 (crude enzyme extract, method of Matsubara et al. 2003)
Experimental: H. pylori was inoculated in Campylobacter agar and grown on Columbia agar with appropriate bovine serum albumin at 37°C, 98% humidity, and low aerobic conditions (5% O2, 10% CO2, and 85% N2) for 72 hours. Three days later, H. pylori was collected by scraping and then suspended in phosphate buffered saline (PBS). Besides, the H. pylori concentration was calibrated to 1×10^8 CFU/mL by turbidimetric method. Standard HPU was extracted from H. pylori strain ATCC 43504 following the approach detailed by [Matsubara et al. (2003)]. The resulting HPU preparation represents a crude enzyme extract, which has been widely adopted for initial inhibitor screening studies ([Li et al., 2018]; [Tan et al., 2017]; [Yu et al., 2015]). All inhibition assays included appropriate controls (enzyme blanks and solvent controls) to ensure specific detection of urease activity.
as §1, §2

[3] = system: H. pylori strains (ATCC 43504, NCTC 26695, ICDC 111001); assay: Minimal inhibitory concentration assay (agar dilution method); assay type: cell-based; conditions: Helicobacter pylori, H. pylori strain ICDC 111001
[4] = target: T2, H. pylori urease (HPU); assay: biochemical; assay type: biochemical, H. pylori strain ATCC 43504; remark: listed apart in the source
Experimental: Residual urease activity was determined by pre-incubating test drug, urease mixture with a series of urea concentrations. Michaelis constant (KM ) and maximum velocity (vmax ) values are obtained from the Lineweaver-Burk plots of 1/v and 1/urea by plotting the reciprocal reaction velocity and substrate concentration. Variation characteristics of urease kinetic parameters KM and vmax were analyzed by adding different concentrations of test products to determine the type of inhibiting effect on HPU. Each sample was performed in triplicate.

[5] = target: T1, jack bean urease (JBU); assay: biochemical; assay type: biochemical; remark: listed apart in the source

T1 sequence (P07374 whole entry, looked up): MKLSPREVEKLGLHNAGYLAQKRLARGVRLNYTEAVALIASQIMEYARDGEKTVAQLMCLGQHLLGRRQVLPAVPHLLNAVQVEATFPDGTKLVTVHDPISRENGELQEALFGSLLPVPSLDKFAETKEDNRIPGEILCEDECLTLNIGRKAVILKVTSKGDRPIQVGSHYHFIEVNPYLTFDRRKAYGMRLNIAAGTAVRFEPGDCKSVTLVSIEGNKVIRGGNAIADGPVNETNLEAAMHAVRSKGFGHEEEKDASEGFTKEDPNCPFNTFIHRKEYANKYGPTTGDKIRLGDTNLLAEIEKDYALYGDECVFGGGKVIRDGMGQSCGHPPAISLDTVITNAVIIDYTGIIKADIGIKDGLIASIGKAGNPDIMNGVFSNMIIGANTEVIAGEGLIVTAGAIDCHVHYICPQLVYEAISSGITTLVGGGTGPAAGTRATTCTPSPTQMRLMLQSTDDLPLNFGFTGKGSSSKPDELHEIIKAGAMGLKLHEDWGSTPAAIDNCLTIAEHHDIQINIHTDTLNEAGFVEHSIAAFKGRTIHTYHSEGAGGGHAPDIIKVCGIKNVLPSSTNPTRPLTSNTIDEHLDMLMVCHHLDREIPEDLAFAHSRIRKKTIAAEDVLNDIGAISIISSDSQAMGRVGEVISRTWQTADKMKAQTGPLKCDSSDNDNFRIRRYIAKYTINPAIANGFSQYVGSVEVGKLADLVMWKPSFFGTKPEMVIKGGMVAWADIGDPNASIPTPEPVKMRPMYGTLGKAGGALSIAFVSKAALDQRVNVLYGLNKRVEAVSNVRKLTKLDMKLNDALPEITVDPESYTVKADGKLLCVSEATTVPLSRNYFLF
T2 sequence (P14916 whole entry): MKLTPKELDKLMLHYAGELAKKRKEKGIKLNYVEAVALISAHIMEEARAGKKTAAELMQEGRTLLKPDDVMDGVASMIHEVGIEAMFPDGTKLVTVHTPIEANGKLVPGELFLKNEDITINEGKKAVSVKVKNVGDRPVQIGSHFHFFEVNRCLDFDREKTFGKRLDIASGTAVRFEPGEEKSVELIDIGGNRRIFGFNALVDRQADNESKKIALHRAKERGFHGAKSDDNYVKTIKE
T2 sequence (P69996 whole entry): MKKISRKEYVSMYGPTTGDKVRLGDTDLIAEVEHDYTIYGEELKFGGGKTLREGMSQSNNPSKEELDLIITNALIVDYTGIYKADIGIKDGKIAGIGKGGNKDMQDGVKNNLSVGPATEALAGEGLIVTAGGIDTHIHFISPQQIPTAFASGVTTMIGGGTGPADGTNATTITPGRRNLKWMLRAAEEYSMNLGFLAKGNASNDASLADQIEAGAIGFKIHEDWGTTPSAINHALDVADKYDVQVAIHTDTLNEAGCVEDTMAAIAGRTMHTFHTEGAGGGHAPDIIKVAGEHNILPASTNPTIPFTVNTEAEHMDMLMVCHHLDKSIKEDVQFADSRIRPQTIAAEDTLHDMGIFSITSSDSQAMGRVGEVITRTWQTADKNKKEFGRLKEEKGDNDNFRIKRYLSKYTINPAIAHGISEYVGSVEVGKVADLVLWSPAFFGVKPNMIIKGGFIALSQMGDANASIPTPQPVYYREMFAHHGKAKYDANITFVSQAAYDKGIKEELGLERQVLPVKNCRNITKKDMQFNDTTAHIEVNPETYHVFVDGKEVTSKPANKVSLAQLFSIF

CC(=O)NO [AHA, Acetylhydroxamic acid, reference compound] gave an IC50 ([1]; JBU, positive control) of 1.56 ± 0.10 µg/mL and an IC50 ([2]; HPU, positive control) of 4.93 ± 0.11 µg/mL.

Cc1ncc([N+](=O)[O-])n1CCO [Metronidazole] was tested, and the MIC [3] was 2 µg/mL (≈ 11.7 µM) and the MIC ([3]; pH 7.2) was 2 µg/mL (≈ 11.7 µM).

C[C@@H]1O[C@@H](O[C@H]2C(=O)c3c(O)cc(O)cc3O[C@@H]2c2ccc(O)c(O)c2)[C@H](O)[C@H](O)[C@H]1O [astilbin] was tested, and the IC50 [1] was 2220 ± 20 µM, the IC50 [2] was 1470 ± 10 µM and the “Strength of urease inhibition relative to engeletin” value ([2]; urease, HPU/JBU not given) was “more than three times as strongly”. The Ki [4] was 870 ± 10 µM, the Kis ([4]; HPU) was 0.87 ± 0.01 mM and the Inhibition type ([4]; HPU, Lineweaver-Burk analysis) was “non-competitive”. The Ki [5] was 200 ± 10 µM, the Kis ([5]; JBU) was 1.17 ± 0.10 mM and the Inhibition type ([5]; JBU, Lineweaver-Burk analysis) was “mixed”.

In the case of C[C@@H]1O[C@@H](O[C@H]2C(=O)c3c(O)cc(O)cc3O[C@@H]2c2ccc(O)cc2)[C@H](O)[C@H](O)[C@H]1O [engeletin], the IC50 [1] is reported as 6670 ± 10 µM and the IC50 [2] is reported as 5890 ± 10 µM.
